According to patent US8541588B2, “Sulfonamide derivatives” (Pfizer Limited, priority 2009, dated 2013):
“And” between values parts separate entries of the source, which are not always exact repeats. Identical values can stand only once.

Biological target: T1, Nav1.7 (or SCN9A) channel; HEK cells stably transfected with hSCN9A (Homo sapiens, UniProt Q15858)
T1 construct: expressed in transfected cells
Assay: Nav1.7 block, PatchXpress 7000 automated whole-cell voltage clamp, estimated IC50 (EIC50)
Type: cell-based
Details: PatchXpress platform; hSCN9A HEK cells held at V1/2 of inactivation; estimated IC50

T1 sequence (Q15858 whole entry): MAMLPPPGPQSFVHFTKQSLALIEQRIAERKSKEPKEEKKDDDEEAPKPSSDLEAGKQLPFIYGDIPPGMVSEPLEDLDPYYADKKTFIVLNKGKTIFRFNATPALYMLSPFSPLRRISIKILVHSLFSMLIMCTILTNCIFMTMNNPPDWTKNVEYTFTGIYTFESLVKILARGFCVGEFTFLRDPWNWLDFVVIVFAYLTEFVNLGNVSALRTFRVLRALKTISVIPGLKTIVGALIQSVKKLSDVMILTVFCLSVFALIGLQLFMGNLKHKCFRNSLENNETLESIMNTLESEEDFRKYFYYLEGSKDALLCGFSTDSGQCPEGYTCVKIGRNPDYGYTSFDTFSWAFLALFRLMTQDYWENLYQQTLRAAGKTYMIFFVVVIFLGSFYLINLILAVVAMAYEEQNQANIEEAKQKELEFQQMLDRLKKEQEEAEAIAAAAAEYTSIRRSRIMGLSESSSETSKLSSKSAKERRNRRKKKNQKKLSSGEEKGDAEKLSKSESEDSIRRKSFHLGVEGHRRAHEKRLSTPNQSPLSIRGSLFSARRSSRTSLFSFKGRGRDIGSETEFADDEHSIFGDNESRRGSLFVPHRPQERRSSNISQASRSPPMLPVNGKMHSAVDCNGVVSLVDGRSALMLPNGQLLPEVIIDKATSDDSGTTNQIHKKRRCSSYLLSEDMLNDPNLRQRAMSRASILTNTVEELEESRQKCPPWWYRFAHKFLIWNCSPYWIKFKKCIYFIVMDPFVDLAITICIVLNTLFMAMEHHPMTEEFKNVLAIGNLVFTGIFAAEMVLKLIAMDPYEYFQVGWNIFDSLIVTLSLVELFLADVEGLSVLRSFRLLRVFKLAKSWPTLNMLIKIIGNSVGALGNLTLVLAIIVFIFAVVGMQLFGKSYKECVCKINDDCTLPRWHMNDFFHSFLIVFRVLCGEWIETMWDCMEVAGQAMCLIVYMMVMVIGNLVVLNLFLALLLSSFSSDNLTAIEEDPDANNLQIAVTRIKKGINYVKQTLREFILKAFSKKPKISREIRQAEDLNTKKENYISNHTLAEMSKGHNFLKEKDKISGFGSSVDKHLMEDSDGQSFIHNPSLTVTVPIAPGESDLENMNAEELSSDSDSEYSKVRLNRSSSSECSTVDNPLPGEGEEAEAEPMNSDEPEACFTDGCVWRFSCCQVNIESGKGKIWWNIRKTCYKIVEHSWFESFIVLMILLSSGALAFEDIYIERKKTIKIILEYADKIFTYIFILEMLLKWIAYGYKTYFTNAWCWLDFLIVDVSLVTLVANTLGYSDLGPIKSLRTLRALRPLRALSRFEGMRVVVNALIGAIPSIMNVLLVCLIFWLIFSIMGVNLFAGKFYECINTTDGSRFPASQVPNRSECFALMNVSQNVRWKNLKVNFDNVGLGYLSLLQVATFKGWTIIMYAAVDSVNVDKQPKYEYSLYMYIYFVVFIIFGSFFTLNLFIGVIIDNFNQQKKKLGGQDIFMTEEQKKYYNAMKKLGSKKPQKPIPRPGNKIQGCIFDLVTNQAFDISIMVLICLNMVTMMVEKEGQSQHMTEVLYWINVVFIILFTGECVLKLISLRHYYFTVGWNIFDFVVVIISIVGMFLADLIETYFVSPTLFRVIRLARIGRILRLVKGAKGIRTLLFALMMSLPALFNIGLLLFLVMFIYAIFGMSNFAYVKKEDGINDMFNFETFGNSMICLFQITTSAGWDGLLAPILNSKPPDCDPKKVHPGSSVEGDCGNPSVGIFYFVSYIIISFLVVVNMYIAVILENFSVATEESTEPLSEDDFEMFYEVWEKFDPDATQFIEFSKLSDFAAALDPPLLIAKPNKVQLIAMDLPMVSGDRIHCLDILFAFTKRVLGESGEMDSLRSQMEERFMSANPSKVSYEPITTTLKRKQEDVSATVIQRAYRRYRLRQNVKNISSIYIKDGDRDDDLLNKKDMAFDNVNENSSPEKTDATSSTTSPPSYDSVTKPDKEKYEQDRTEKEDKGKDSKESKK

Row | IC50 | Structure (SMILES)
1 | 3110 nM | N#Cc1cc(S(=O)(=O)Nc2ccnc(C(F)(F)F)n2)ccc1Oc1ccccc1-c1ccccc1 [Example 116, 4-(biphenyl-2-yloxy)-3-cyano-N-[2-(trifluoromethyl)pyrimidin-4-yl]benzenesulfonamide]
2 | 1110 nM | N#Cc1cc(S(=O)(=O)Nc2ncns2)ccc1Oc1cc(F)ccc1Oc1ccccc1 [Example 74, 3-cyano-4-(5-fluoro-2-phenoxyphenoxy)-N-1,2,4-thiadiazol-5-ylbenzenesulfonamide]
3 | 3170 nM | Cc1cnc(NS(=O)(=O)c2ccc(Oc3ccccc3-c3ccccc3)c(C#N)c2)s1 [Example 100, 4-(biphenyl-2-yloxy)-3-cyano-N-(5-methyl-1,3-thiazol-2-yl)benzenesulfonamide]
4 | 600 nM | N#Cc1cc(S(=O)(=O)Nc2nccs2)ccc1Oc1ccc(-c2cc(C(F)(F)F)n[nH]2)cc1 [Example 202, 3-cyano-N-thiazol-2-yl-4-[4-(5-trifluoromethyl-2H-pyrazol-3-yl)-phenoxy]-benzenesulfonamide]
5 | >10000 nM and 24900 nM | N#Cc1cc(S(=O)(=O)Nc2cnsc2)ccc1Oc1ccccc1-c1ccccc1 [Example 99, 4-(biphenyl-2-yloxy)-3-cyano-N-isothiazol-4-ylbenzenesulfonamide]
6 | 33000 nM | N#Cc1cc(S(=O)(=O)Nc2nccs2)ccc1Oc1ccc(-c2cc[nH]n2)cc1F [Example 185, 3-cyano-4-[2-fluoro-4-(1H-pyrazol-3-yl)-phenoxy]-N-thiazol-2-yl-benzenesulfonamide]
7 | 570 nM | O=S(=O)(Nc1nccs1)c1ccc(Oc2cc(C(F)(F)F)nn2-c2cc(F)ccc2F)c(F)c1 [Example 228, 4-[2-(2,5-difluoro-phenyl)-5-trifluoromethyl-2H-pyrazol-3-yloxy]-3-fluoro-N-thiazol-2-yl-benzenesulfonamide]
8 | 450 nM | N#Cc1cc(S(=O)(=O)Nc2ncns2)ccc1Oc1ccc(F)cc1-c1ccnn1CC(F)(F)F [Example 26, 3-cyano-4-(4-fluoro-2-(1-(2,2,2-trifluoroethyl)-1H-pyrazol-5-yl)phenoxy)-N-(1,2,4-thiadiazol-5-yl)benzenesulfonamide]
9 | 70 nM | Cn1nccc1-c1cc(Cl)ccc1Oc1ccc(S(=O)(=O)Nc2ncc(F)s2)cc1F [Example 275, 4-[4-chloro-2-(2-methyl-2H-pyrazol-3-yl)-phenoxy]-3-fluoro-N-(5-fluoro-thiazol-2-yl)-benzenesulfonamide]
10 | 3340 nM | COc1cc(C)ccc1Oc1cccc(F)c1Oc1ccc(S(=O)(=O)Nc2ncns2)cc1C#N [Example 75, 3-cyano-4-[2-fluoro-6-(2-methoxy-4-methylphenoxy)phenoxy]-N-1,2,4-thiadiazol-5-ylbenzenesulfonamide]

Same assay, conditions: estimated IC50; hSCN9A HEK cells, PatchXpress platform; Examples 283-814

Row | IC50 [nM] | Structure (SMILES)
11 | 3400 | Cc1cn(C)nc1-c1ccc(Oc2ccc(S(=O)(=O)Nc3nccs3)cc2C#N)cc1 [Example 470, 3-cyano-4-[4-(1,4-dimethyl-1H-pyrazol-3-yl)phenoxy]-N-1,3-thiazol-2-ylbenzenesulfonamide]
12 | 2000 | N#Cc1cc(S(=O)(=O)Nc2nccs2)ccc1Oc1cnn(Cc2ccc(Cl)cc2)c1 [Example 331, 4-{[1-(4-chlorobenzyl)-1H-pyrazol-4-yl]oxy}-3-cyano-N-1,3-thiazol-2-ylbenzenesulfonamide]
13 | 26 | N#Cc1cc(S(=O)(=O)Nc2nccs2)ccc1Oc1ccc(Cl)cc1-c1c[nH]nc1N [Example 706, 4-[2-(3-amino-1H-pyrazol-4-yl)-4-chlorophenoxy]-3-cyano-N-1,3-thiazol-2-ylbenzenesulfonamide]
14 | 3000 | Cn1ncnc1-c1cc(Cl)ccc1Oc1ccc(S(=O)(=O)Nc2nccs2)cc1F [Example 406, 4-[4-chloro-2-(1-methyl-1H-1,2,4-triazol-5-yl)phenoxy]-3-fluoro-N-1,3-thiazol-2-ylbenzenesulfonamide]
15 | 29 | Nc1ccc(-c2cc(Cl)ccc2Oc2cc(F)c(S(=O)(=O)Nc3ncns3)cc2F)cn1 [Example 410, 4-[2-(6-aminopyridin-3-yl)-4-chlorophenoxy]-2,5-difluoro-N-1,2,4-thiadiazol-5-ylbenzenesulfonamide]
16 | 350 | N#Cc1cc(S(=O)(=O)Nc2nccs2)ccc1Oc1ccc(-n2cc(Cl)cn2)c(Cl)c1 [Example 384, 4-[3-chloro-4-(4-chloro-1H-pyrazol-1-yl)phenoxy]-3-cyano-N-1,3-thiazol-2-ylbenzenesulfonamide]
17 | 96 | Cc1ncsc1-c1cc(Cl)ccc1Oc1ccc(S(=O)(=O)Nc2nccs2)cc1C#N [Example 698, 4-[4-chloro-2-(4-methyl-1,3-thiazol-5-yl)phenoxy]-3-cyano-N-1,3-thiazol-2-ylbenzenesulfonamide]
18 | 180 | O=S(=O)(Nc1ncc(Cl)s1)c1cc(F)c(Oc2ccc(F)cc2-c2cn[nH]c2)cc1F [Example 614, N-(5-chloro-1,3-thiazol-2-yl)-2,5-difluoro-4-[4-fluoro-2-(1H-pyrazol-4-yl)phenoxy]benzenesulfonamide]
19 | 250 | N#Cc1cc(S(=O)(=O)Nc2cscn2)ccc1Oc1ccc(Cl)cc1-c1ccnn1C(F)F [Example 402, 4-{4-chloro-2-[1-(difluoromethyl)-1H-pyrazol-5-yl]phenoxy}-3-cyano-N-1,3-thiazol-4-ylbenzenesulfonamide]
20 | >10000 | CCn1nc(C(F)(F)F)cc1-c1ccc(Oc2ccc(S(=O)(=O)Nc3ccc(C#N)cn3)cc2C#N)cc1 [Example 343, 3-cyano-N-(5-cyanopyridin-2-yl)-4-{4-[1-ethyl-3-(trifluoromethyl)-1H-pyrazol-5-yl]phenoxy}benzenesulfonamide]
21 | 18 | CC(C)c1ccc(Oc2ccc(S(=O)(=O)Nc3nccs3)cc2C#N)c(-c2ccnn2C)c1 [Example 351, 3-cyano-4-[4-isopropyl-2-(1-methyl-1H-pyrazol-5-yl)phenoxy]-N-1,3-thiazol-2-ylbenzenesulfonamide]
22 | 1500 | N#Cc1cc(S(=O)(=O)Nc2nccs2)ccc1Oc1ccc(-n2ccc(C(F)(F)F)n2)cc1C(F)(F)F [Example 492, 3-cyano-N-1,3-thiazol-2-yl-4-{2-(trifluoromethyl)-4-[3-(trifluoromethyl)-1H-pyrazol-1-yl]phenoxy}benzenesulfonamide]
23 | 18000 | CCn1nc(C(F)(F)F)cc1-c1ccc(Oc2ccc(S(=O)(=O)Nc3cc(C#N)ccn3)cc2C#N)cc1 [Example 342, 3-cyano-N-(4-cyanopyridin-2-yl)-4-{4-[1-ethyl-3-(trifluoromethyl)-1H-pyrazol-5-yl]phenoxy}benzenesulfonamide]
24 | 7.6 | N#Cc1cc(S(=O)(=O)Nc2ncc(Cl)s2)ccc1Oc1ccc(Cl)cc1-c1cn[nH]c1 [Example 786, N-(5-Chloro-1,3-thiazol-2-yl)-3-cyano-4-[4-chloro-2-(1H-pyrazol-4-yl)phenoxy]benzenesulfonamide]
25 | >1000 | N#Cc1cc(S(=O)(=O)Nc2nccs2)ccc1Oc1ccc(-n2cc(F)cn2)cc1 [Example 774, 3-cyano-4-[4-(4-fluoro-1H-pyrazol-1-yl)phenoxy]-N-1,3-thiazol-2-ylbenzenesulfonamide]
26 | 2100 | Cn1ncnc1-c1cc(Cl)ccc1Oc1ccc(S(=O)(=O)Nc2nccs2)cc1C#N [Example 326, 4-[4-chloro-2-(1-methyl-1H-1,2,4-triazol-5-yl)phenoxy]-3-cyano-N-1,3-thiazol-2-ylbenzenesulfonamide]
27 | 3300 | Cn1nccc1-c1cc(Cl)ccc1Oc1ncc(S(=O)(=O)Nc2cscn2)cc1Cl [Example 631, 5-chloro-6-(4-chloro-2-(1-methyl-1H-pyrazol-5-yl)phenoxy)-N-(thiazol-4-yl)pyridine-3-sulfonamide]
28 | 95 | O=S(=O)(Nc1ccncn1)c1ccc(Oc2ccc(Cl)cc2-c2ccn[nH]2)c(Cl)c1 [Example 746, 3-chloro-4-[4-chloro-2-(1H-pyrazol-5-yl)phenoxy]-N-pyrimidin-4-ylbenzenesulfonamide]
29 | 510 | N#Cc1cc(S(=O)(=O)Nc2ncc(Cl)s2)ccc1Oc1ccc(F)cc1-c1ccn[nH]1 [Example 589, N-(5-Chloro-1,3-thiazol-2-yl)-3-cyano-4-[4-fluoro-2-(1H-pyrazol-5-yl)phenoxy]benzenesulfonamide]
30 | 1.2 | N#Cc1cc(S(=O)(=O)Nc2ncns2)ccc1Oc1cc(F)c(Cl)cc1-c1cn[nH]c1 [Example 804, 4-[4-chloro-5-fluoro-2-(1H-pyrazol-4-yl)phenoxy]-3-cyano-N-1,2,4-thiadiazol-5-ylbenzenesulfonamide]
31 | 78 | N#Cc1cc(S(=O)(=O)Nc2nccs2)ccc1Oc1ccc(I)cc1-c1cn[nH]c1 [Example 696, 3-cyano-4-[4-iodo-2-(1H-pyrazol-4-yl)phenoxy]-N-1,3-thiazol-2-ylbenzenesulfonamide]

Row | Structure (SMILES) | IC50 [nM]
32 | N#Cc1cc(S(=O)(=O)Nc2ncns2)ccc1Oc1ccc(Br)cc1-c1cn[nH]c1 [Example 503, 4-[Bromo-2-(1H-pyrazol-4-yl)phenoxy]-3-cyano-N-1,2,4-thiadiazol-5-ylbenzenesulfonamide] | 7

Same assay, conditions: estimated IC50; hSCN9A HEK cells, PatchXpress platform; Examples 815-1040

Row | IC50 [nM] | Structure (SMILES)
33 | 1.8 | O=S(=O)(Nc1ncns1)c1cc(F)c(Oc2ccc(Cl)cc2-c2ccnc(CN3CCC3)c2)cc1F [Example 838, 4-{2-[2-(azetidin-1-ylmethyl)pyridin-4-yl]-4-chlorophenoxy}-2,5-difluoro-N-1,2,4-thiadiazol-5-ylbenzenesulfonamide]
34 | 35 | O=S(=O)(Nc1nncs1)c1ccc(Oc2ccc(OC(F)(F)F)cc2-c2ccnnc2)c(Cl)c1 [Example 942, 3-chloro-4-[2-pyridazin-4-yl-4-(trifluoromethoxy)phenoxy]-N-1,3,4-thiadiazol-2-ylbenzenesulfonamide]
35 | 170 | CN(C)c1n[nH]cc1-c1cc(Cl)ccc1Oc1cc(F)c(S(=O)(=O)Nc2cscn2)cc1Cl [Example 860, 5-chloro-4-{4-chloro-2-[3-(dimethylamino)-1H-pyrazol-4-yl]phenoxy}-2-fluoro-N-1,3-thiazol-4-ylbenzenesulfonamide]
36 | >10000 | Cc1nonc1NS(=O)(=O)c1ccc(Oc2ccc(Cl)cc2-c2ccnn2C)c(C#N)c1 [Example 907, 4-[4-chloro-2-(1-methyl-1H-pyrazol-5-yl)phenoxy]-3-cyano-N-(4-methyl-1,2,5-oxadiazol-3-yl)benzenesulfonamide]
